According to article PMC7956476, “Quinoline Functionalized Schiff Base Silver (I) Complexes: Interactions with Biomolecules and In Vitro Cytotoxicity, Antioxidant and Antimicrobial Activities” (Molecules, 2021):

Legend:
calf thymus DNA (CT-DNA) = assay: CT-DNA electronic absorption titration (Wolfe–Shimer); format: binding; settings: intrinsic binding constant, absorption titration, PBS pH 7.2
[1] = Ferric reducing antioxidant power (FRAP) assay; format: biochemical; settings: done in triplicate
[2] = test system: Staphylococcus aureus ATCC 25923; assay: Minimum inhibitory concentration (MIC), spotting on Müeller–Hinton agar; format: cell-based; settings: Gram + Ve; S. aureus; 37 °C, 18 h
[3] = test system: Staphylococcus aureus ATCC 700699 (methicillin-resistant); assay: as above; format: cell-based; settings: Gram + Ve; methicillin-resistant S. aureus; 37 °C, 18 h
[4] = test system: Escherichia coli ATCC 25922; assay: as above; format: cell-based; settings: Gram − Ve; E. coli; 37 °C, 18 h
[5] = test system: Salmonella typhimurium ATCC 14026; assay: as above; format: cell-based; settings: Gram − Ve; S. typhi; 37 °C, 18 h
[6] = test system: neuronal cancer cell line (SHSY5Y); assay: Cytotoxicity assay (CellTiter 96 AQueous One Solution, 72 h); format: cell-based, human; settings: EC50 in HEK293 over EC50 in SHSY5Y
Description: (§1) In vitro cell viability with cultured cells is a method commonly used for cytotoxicity activities of potential anticancer compounds due to reduced cost speed, and potential for automation, and tests using human cells other than some in vivo animal tests. […] The cytotoxicity assay was conducted as per the standard method and as described by Abrahams et al. 2018 [111]. […] The plate was then incubated for 72 h at 37 °C and 5% CO2. To each well, 20 µL CellTiter 96 AQueous One Solution (Promega, Madison, WI, USA) was added and the plates were incubated for 4 h as previously described. Thereafter, absorbance was read at 490 nm on a multiplate reader (Molecular Devices, San Jose, CA, USA). […] The values recorded are averages of at least three separate experiments (n = 3).

[7] = test system: cervical cancer cell line (HELA); assay: as above; format: cell-based, human; settings: EC50 in HEK293 over EC50 in HELA
Description: as §1

[8] = test system: breast cancer cell line (MDA-MB231); assay: as above; format: cell-based, human; settings: EC50 in HEK293 over EC50 in MDA-MB231
Description: as §1

| Structure (SMILES) | CT-DNA-Cmp. Kb (M^−1) × 10^5 (calf thymus DNA (CT-DNA)) | Antioxidant (IC50 mg/mL) FRAP [1] | Minimum inhibitory concentration, SA [2] | Minimum inhibitory concentration, MRSA [3] | Minimum inhibitory concentration, EC [4] | Minimum inhibitory concentration, ST [5] | Selectivity Index (SI) SHSY5Y [6] | Selectivity Index (SI) HELA [7] | Selectivity Index (SI) MDA-MB231 [8] |
| --- | --- | --- | --- | --- | --- | --- | --- | --- | --- |
| [Ag+].[O-][Cl+3]([O-])([O-])[O-].c1ccc2nc(-c3nc4ccccc4s3)ccc2c1.c1ccc2nc(-c3nc4ccccc4s3)ccc2c1 [Complex Q7, [Ag(L2)2]ClO4] | 15.0 (M^−1) × 10^5 | 1.13 ± 0.044 mg/mL | 1.6 µg/mL | 50 µg/mL | 25 µg/mL | 50 µg/mL | 3.30 | 4.39 | 2.40 |
| Cc1ccc(N=Cc2ccc3ccccc3n2)cc1.Cc1ccc(N=Cc2ccc3ccccc3n2)cc1.[Ag+].[O-][Cl+3]([O-])([O-])[O-] [Complex Q9, [Ag(L4)2]ClO4] | 5.00 (M^−1) × 10^5 | 1.62 ± 0.078 mg/mL | 50 µg/mL | 1000 µg/mL | 12.5 µg/mL | 50 µg/mL | 2.12 | 4.48 | 2.57 |
